Assays:
Experiment in all cases: combination Emax (second highest fraction inhibited in the dose matrix, 72 h); higher = more inhibition; extreme values may be limits of the assay
[1] = system: A3-KAW (B-Cell Non-Hodgkin's Lymphoma)
In short: (§1)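 After 24 hours at 37°C and 5% CO2 in 1536-well plates, cells in DMEM/F12 or RPMI plus 10% FBS received two-drug dose matrices for 72 hours. Viability came from CellTiter-Glo 2.0 luminescence and was scaled as inhibition, anchored at 0 by vehicle wells and at 1 by blank wells. Combination Emax is taken as the second-highest inhibition in the matrix, and Bliss excess as the observed combination effect less EA + EB − EA·EB, with EA and EB the single-agent effects.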

ARH-77 (Non-Cancerous) = system: ARH-77 (Non-Cancerous)
In short: as §1

[2] = system: COLO-320-HSR (Colorectal Carcinoma)
In short: as §1

[3] = system: ECC10 (Gastric Carcinoma)
In short: as §1

FU97 (Gastric Carcinoma) = system: FU97 (Gastric Carcinoma)
In short: as §1

[4] = system: HCC1954 (Breast Carcinoma)
In short: as §1

[5] = system: NCI-H1650 (Lung Adenocarcinoma)
In short: as §1

[6] = system: NCI-H1666 (Lung Adenocarcinoma)
In short: as §1

[7] = system: NCI-H1693 (Lung Adenocarcinoma)
In short: as §1

[8] = system: NCI-H2066 (Squamous Cell Lung Carcinoma)
In short: as §1

NCI-H2591 (Mesothelioma) = system: NCI-H2591 (Mesothelioma)
In short: as §1

[9] = system: NCI-H64 (Small Cell Lung Carcinoma)
In short: as §1

NY (Osteosarcoma) = system: NY (Osteosarcoma)
In short: as §1

[10] = system: ONS-76 (Other Solid Carcinomas)
In short: as §1

[11] = system: OS-RC-2 (Kidney Carcinoma)
In short: as §1

[12] = system: SISO (Cervical Carcinoma)
In short: as §1

[13] = system: SK-MES-1 (Squamous Cell Lung Carcinoma)
In short: as §1

[14] = system: SK-MG-1 (Low Grade Glioma)
In short: as §1

[15] = system: TT (Thyroid Gland Carcinoma)
In short: as §1

[16] = system: VCaP (Prostate Carcinoma)
In short: as §1

Compound | combination Emax [1] | combination Emax (ARH-77 (Non-Cancerous)) | combination Emax [2] | combination Emax [3] | combination Emax (FU97 (Gastric Carcinoma)) | combination Emax [4] | combination Emax [5] | combination Emax [6] | combination Emax [7] | combination Emax [8] | combination Emax (NCI-H2591 (Mesothelioma)) | combination Emax [9] | combination Emax (NY (Osteosarcoma)) | combination Emax [10] | combination Emax [11] | combination Emax [12] | combination Emax [13] | combination Emax [14] | combination Emax [15] | combination Emax [16]
COc1cc2c(cc1OCCCCCOc1cc3c(cc1OC)C(=O)N1C=C(C)C[C@H]1C=N3)N=C[C@@H]1CC(C)=CN1C2=O [SG3199] + O=C(c1cc(Cc2n[nH]c(=O)c3ccccc23)ccc1F)N1CCN(C(=O)C2CC2)CC1 [Olaparib] (first compound max 0.001 µM, 7x7, partner max 10 µM) | 0.595 | 0.221 | 0.061 | 0.102 | 0.156 | 0.165 | 0.0953 | 0.0849 | 0.086 | 0.108 | 0.118 | 0.0693 | 0.0994 | 0.206 | 0.0448 | 0.226 | 0.103 | 0.168 | 0.187 | 0.0785
CCc1c2c(nc3ccc(O)cc13)-c1cc3c(c(=O)n1C2)COC(=O)[C@]3(O)CC [SN-38] + CN(C)CCCOc1ccc(-c2ccc3ncc4c(c3c2)n(C2CCOCC2)c(=O)n4C)cn1 [AZD0156] (first compound max 0.3 µM, 7x7, partner max 1 µM) | 1 | 0.992 | 0.284 | 0.945 | 0.187 | 0.376 | 0.501 | 0.626 | 0.474 | 0.154 | 0.65 | 0.407 | 0.855 | 0.805 | 0.443 | 0.928 | 0.804 | 0.833 | 0.827 | 0.391
C[C@@H](c1ccc2nccn2c1)n1nnc2ncc(-c3cnn(C)c3)nc21 [Savolitinib] + CC1(C)CCC(CN2CCN(c3ccc(C(=O)NS(=O)(=O)c4ccc(NCC5CCOCC5)c([N+](=O)[O-])c4)c(Oc4cnc5[nH]ccc5c4)c3)CC2)=C(c2ccc(Cl)cc2)C1 [Venetoclax] (first compound max 1 µM, 7x7, partner max 1 µM) | 0.188 | 0.251 | 0.213 | 0.5 | 0.13 | 0.136 | 0.127 | 0.152 | 0.0814 | 0.195 | 0.15 | 0.23 | 0.246 | 0.118 | 0.145 | 0.0509 | 0.0772 | 0.11 | 0.173 | 0.115
C[C@@H](c1ccc2nccn2c1)n1nnc2ncc(-c3cnn(C)c3)nc21 [Savolitinib] + Cc1c2c(nn1C)CSCc1cc(n(C)n1)CSc1cc(c3ccccc3c1)OCCCc1c(C(=O)O)n(C)c3c-2c(Cl)ccc13 [AZD5991] (first compound max 1 µM, 7x7, partner max 1 µM) | 1 | 0.245 | 0.779 | 0.503 | 0.164 | 0.85 | 0.132 | 0.178 | 0.108 | 0.169 | 0.216 | 0.0956 | 0.442 | 0.153 | 0.19 | 0.0507 | 0.228 | 0.124 | 0.244 | 0.946
Cn1cnc2c(F)c(Nc3ccc(Br)cc3Cl)c(C(=O)NOCCO)cc21 [Selumetinib] + C=CCn1c(=O)c2cnc(Nc3ccc(N4CCN(C)CC4)cc3)nc2n1-c1cccc(C(C)(C)O)n1 [AZD1775] (first compound max 10 µM, partner max 1 µM) | 0.953 | 0.979 | 0.589 | 0.774 | 0.364 | 0.397 | 0.34 | 0.538 | 0.428 | 0.351 | 0.309 | 0.858 | 0.527 | 0.682 | 0.244 | 0.539 | 0.631 | 0.449 | 0.305 | 0.509
Cn1cnc2c(F)c(Nc3ccc(Br)cc3Cl)c(C(=O)NOCCO)cc21 [Selumetinib] + CC(C)n1c(=O)n(C)c2cnc3cc(F)c(-c4ccc(OCCCN5CCCCC5)nc4)cc3c21 [AZD1390] (first compound max 10 µM, 7x7, partner max 0.3 µM) | 0.408 | 0.318 | 0.181 | 0.202 | 0.273 | 0.227 | 0.132 | 0.529 | 0.204 | 0.254 | 0.199 | 0.105 | 0.181 | 0.713 | 0.158 | 0.0869 | 0.464 | 0.185 | 0.201 | 0.0626
Cn1cnc2c(F)c(Nc3ccc(Br)cc3Cl)c(C(=O)NOCCO)cc21 [Selumetinib] + CCN(CCO)CCCOc1ccc2c(Nc3cc(CC(=O)Nc4cccc(F)c4)[nH]n3)ncnc2c1 [AZD2811] (first compound max 10 µM, 7x7, partner max 1 µM) | 0.597 | 0.369 | 0.249 | 0.841 | 0.305 | 0.29 | 0.213 | 0.506 | 0.286 | 0.286 | 0.29 | 0.516 | 0.247 | 0.728 | 0.225 | 0.338 | 0.511 | 0.288 | 0.453 | 0.211
Cn1cnc2c(F)c(Nc3ccc(Br)cc3Cl)c(C(=O)NOCCO)cc21 [Selumetinib] + C[C@@H]1COCCN1C2=NC(=NC(=C2)C3(CC3)[S@](=N)(=O)C)C4=C5C=CNC5=NC=C4 [AZD6738] (first compound max 10 µM, 7x7, partner max 10 µM) | 1 | 0.946 | 0.371 | 0.443 | 0.333 | 0.432 | 0.333 | 0.516 | 0.364 | 0.43 | 0.339 | 0.808 | 0.617 | 0.771 | 0.304 | 0.43 | 0.687 | 0.387 | 0.316 | 0.303
CC1(C)CCC(CN2CCN(c3ccc(C(=O)NS(=O)(=O)c4ccc(NCC5CCOCC5)c([N+](=O)[O-])c4)c(Oc4cnc5[nH]ccc5c4)c3)CC2)=C(c2ccc(Cl)cc2)C1 [Venetoclax] + C1CN(CCC1(C(=O)N[C@@H](CCO)C2=CC=C(C=C2)Cl)N)C3=NC=NC4=C3C=CN4 [Capivasertib] (first compound max 1 µM, 7x7, partner max 3 µM) | 0.282 | 0.7 | 0.0935 | 0.959 | 0.533 | 0.558 | 0.164 | 0.287 | 0.197 | 0.424 | 0.174 | 0.361 | 0.583 | 0.761 | 0.354 | 0.106 | 0.202 | 0.437 | 0.681 | 0.398
CC1(C)CCC(CN2CCN(c3ccc(C(=O)NS(=O)(=O)c4ccc(NCC5CCOCC5)c([N+](=O)[O-])c4)c(Oc4cnc5[nH]ccc5c4)c3)CC2)=C(c2ccc(Cl)cc2)C1 [Venetoclax] + C=CCn1c(=O)c2cnc(Nc3ccc(N4CCN(C)CC4)cc3)nc2n1-c1cccc(C(C)(C)O)n1 [AZD1775] (first compound max 1 µM, partner max 1 µM) | 0.937 | 0.997 | 0.801 | 0.989 | 0.626 | 0.364 | 0.433 | 0.343 | 0.308 | 0.203 | 0.279 | 0.942 | 0.741 | 0.781 | 0.326 | 0.694 | 0.565 | 0.625 | 0.673 | 0.668
CC1(C)CCC(CN2CCN(c3ccc(C(=O)NS(=O)(=O)c4ccc(NCC5CCOCC5)c([N+](=O)[O-])c4)c(Oc4cnc5[nH]ccc5c4)c3)CC2)=C(c2ccc(Cl)cc2)C1 [Venetoclax] + CCN(CCO)CCCOc1ccc2c(Nc3cc(CC(=O)Nc4cccc(F)c4)[nH]n3)ncnc2c1 [AZD2811] (first compound max 1 µM, 7x7, partner max 1 µM) | 0.286 | 0.703 | 0.156 | 1 | 0.413 | 0.293 | 0.207 | 0.265 | 0.182 | 0.226 | 0.196 | 0.792 | 0.616 | 0.698 | 0.232 | 0.231 | 0.223 | 0.464 | 0.652 | 0.226
CC1(C)CCC(CN2CCN(c3ccc(C(=O)NS(=O)(=O)c4ccc(NCC5CCOCC5)c([N+](=O)[O-])c4)c(Oc4cnc5[nH]ccc5c4)c3)CC2)=C(c2ccc(Cl)cc2)C1 [Venetoclax] + CN(C)CCCOc1ccc(-c2ccc3ncc4c(c3c2)n(C2CCOCC2)c(=O)n4C)cn1 [AZD0156] (first compound max 1 µM, 7x7, partner max 1 µM) | 0.288 | 0.297 | 0.198 | 0.963 | 0.462 | 0.162 | 0.104 | 0.225 | 0.221 | 0.156 | 0.161 | 0.25 | 0.551 | 0.725 | 0.249 | 0.148 | 0.216 | 0.275 | 0.594 | 0.196

From the supplement of paper PMC11061612
